Values of other authors as cited in patent US20060211660A1, “Combination therapy for topical application in the treatment of dry eye syndrome” (priority 2005, published 2006).
Like-named read-outs stand apart in the source and are kept apart here.

Experiments:
[1] = for androgenic (virilizing) activity relative to standards: relative to standards (typically testosterone)
[2] = for anabolic activity relative to standards: relative to standards (typically testosterone)

SMILES | androgenic (virilizing) activity relative to standards [1] | anabolic activity relative to standards [2] | also measured
C[C@]12CC[C@@H]3c4ccc(O)cc4CC[C@H]3[C@@H]1CC[C@@H]2O [17-β-estradiol] |  |  | improvement in corneal lens transmittance and autofluorescence (0.00025% drops every 6 hours, women already taking 2 mg estriol valerate daily by mouth): varying or marginal improvement
C[C@]12CCC(=O)C[C@@H]1CC[C@@H]1[C@@H]2CC[C@]2(C)[C@@H](O)CC[C@@H]12 [dihydrotestosterone] | unchanged | enhanced | 
CCC(=O)O[C@H]1CC[C@H]2[C@@H]3CCC4=CC(=O)CC[C@@H]4[C@H]3CC[C@]12C [19-nortestosterone propionate] | decreased | unchanged | 
C[C@]12Cc3c[nH]nc3C[C@@H]1CC[C@@H]1[C@@H]2CC[C@@]2(C)[C@H]1CC[C@]2(C)O [stanozolol] | decreased | increased | 
C[C@]12COC(=O)C[C@@H]1CC[C@@H]1[C@@H]2CC[C@@]2(C)[C@H]1CC[C@]2(C)O [oxandrolone, 17 alpha-methyl-17β-hydroxy-2-oxa-5 alpha-androstan-3-one] | decreased | increased | androgenic activity, percent of that of methyltestosterone ([1]; relative to methyltestosterone): 24%; anabolic activity, percent of that of methyltestosterone ([2]; relative to methyltestosterone): 322%
C[C@]12CC[C@@H]3c4ccc(O)cc4CC[C@H]3[C@@H]1C[C@@H](O)[C@@H]2O [estriol] |  |  | improvement in corneal lens transmittance and autofluorescence (post-menopausal patients, low systemic dose 0.25 mg per day): varying or marginal improvement
C[C@]1(O)CC[C@H]2[C@@H]3CCC4=CC(=O)CC[C@]4(C)[C@@]3(F)[C@@H](O)C[C@@]21C [fluoxymesterone] | augmented |  | 
C[C@]12C/C(=C/O)C(=O)C[C@@H]1CC[C@@H]1[C@@H]2CC[C@@]2(C)[C@H]1CC[C@]2(C)O [oxymetholone] | unchanged | enhanced | 
